Like-named read-outs stand apart in the source and are kept apart here.
Key:
[1] = target: hERG potassium channel (Homo sapiens, UniProt Q12809); assay: Whole cell patch clamp, HEK 293 T-REx HERG cells
Description: For this experiment HEK 293 T-REx HERG cells (#23) were used. This cell line made by IonGate is characterized by the inducible expression of the hERG gene. The T-REx™ System (Invitrogen, Karlsruhe, Germany) is a tetracycline-regulated mammalian expression system that uses regulatory elements from the E. coli Tn10-encoded tetracycline (Tet) resistance operon. In the absence of Tet the expression is repressed. Tetracycline regulation in the T-REx™ System is based on the binding of tetracycline to the Tet repressor and derepression of the promoter controlling expression of the hERG gene. Addition of Tet to the cell culture media results in expression of the hERG potassium channel.
To construct the HEK 293 T-REx HERG cell line, the hERG gene was ligated into the inducible expression vector pcDNA4/TO (→pc4TO-HERG) and transfected into HEK 293 T-REx cells (this cell line stably expresses the Tet repressor and was purchased at Invitrogen). Stable cell clones were isolated after selection with Blasticidin (5 μg/ml) and Zeocin™ (300 μg/ml). The clones were electrophysiological characterized after induction with 1 μg/ml Tet.
Experiments were performed using the patch clamp set-up. Technical equipment needed for manipulation of the cells was placed on a vibration-isolated table and shielded with a Faraday cage to minimize electrical noise. The amplifier and control system were placed in a rack outside the Faraday cage. The system consisted of an EPC9 or EPC10 patch clamp amplifier (HEKA, Lambrecht, Germany), and the perfusion system DADVC8 (ALA Scientific, New York, USA) controlled by the Pulse software package (HEKA, Lambrecht, Germany) installed on a personal computer.
The cells used for this experiment were kept in continuous culture under standard conditions (37° C., air supplemented with 5% CO2). The HEK 293 T-REx HERG cells were kept in minimal essential medium (MEM) supplemented with 100 U/ml Penicillin, 100 μg/ml Streptomycin, 10% fetal calf serum (FCS), 1% non-essential amino acids (NEAA), 2.5 μg/ml amphotericin, 300 μg/ml Zeocin™ and 5 μg/ml Blasticidin. Cells were passed every 3-4 days after detachment using a Trypsin solution. The quality of the cultured cells was guaranteed by vitality and contamination tests.
At least 18 hours prior to electrophysiological experiments the cells were detached by application of iced PBS (phosphate buffered saline) or Trypsin and replated on cover slips. 1 μg/ml Tet was added to the cells to induce hERG expression.
Activity of the cardiac hERG channel was investigated using the patch clamp technique in its whole cell mode. This means that the current needed for clamping the whole cell expressing the K^+-channel protein to a specific potential was measured. The pipettes used for patch clamping were made of borosilicate glass. Measurements were performed at room temperature (20-25° C.). In each experiment (i.e. each cell) only one concentration of the compound was investigated—no cumulative dosages were performed. Each cell acted as its own control. The effect of the compounds on hERG mediated currents was investigated at one concentration (10 μM) with two replicates each (c=1, n=2).
Between voltage pulses the cell was clamped to a holding potential of −80 mV (inside).
(b) and (c) were used to characterize the properties of the hERG channel and to check the quality of the individual patch clamp experiment (voltage control). Each test protocol consisted of 6 segments.

[2] = target: T1, human Kv4.3/KChIP2.2 potassium channel (Homo sapiens, UniProt Q9UK17); assay: Whole cell patch clamp, CHO-K1 cells stably expressing Kv4.3/KChIP2.2; format: cell-based; details: CHO-K1, 1 μM
T1 construct: expressed in transfected cells
T1 sequence (Q9UK17 1-655): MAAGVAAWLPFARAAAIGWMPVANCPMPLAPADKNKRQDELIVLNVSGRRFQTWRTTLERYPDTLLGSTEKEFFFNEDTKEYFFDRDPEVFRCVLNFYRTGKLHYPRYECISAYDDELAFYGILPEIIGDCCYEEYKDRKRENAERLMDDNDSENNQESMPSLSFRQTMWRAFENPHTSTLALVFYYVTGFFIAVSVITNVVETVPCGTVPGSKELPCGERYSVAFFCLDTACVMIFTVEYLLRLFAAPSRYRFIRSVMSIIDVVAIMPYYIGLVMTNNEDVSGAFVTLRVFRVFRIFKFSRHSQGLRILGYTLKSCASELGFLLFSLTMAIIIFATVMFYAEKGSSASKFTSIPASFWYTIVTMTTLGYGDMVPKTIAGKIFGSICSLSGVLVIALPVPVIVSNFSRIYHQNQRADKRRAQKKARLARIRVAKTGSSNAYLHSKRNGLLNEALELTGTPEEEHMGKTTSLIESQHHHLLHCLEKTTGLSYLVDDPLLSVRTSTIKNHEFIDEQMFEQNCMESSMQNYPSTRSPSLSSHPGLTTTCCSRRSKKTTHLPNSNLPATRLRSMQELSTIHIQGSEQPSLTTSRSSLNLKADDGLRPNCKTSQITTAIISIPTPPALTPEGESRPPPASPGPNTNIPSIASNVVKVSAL
T1 sequence (Q9NS61 1-270 partner): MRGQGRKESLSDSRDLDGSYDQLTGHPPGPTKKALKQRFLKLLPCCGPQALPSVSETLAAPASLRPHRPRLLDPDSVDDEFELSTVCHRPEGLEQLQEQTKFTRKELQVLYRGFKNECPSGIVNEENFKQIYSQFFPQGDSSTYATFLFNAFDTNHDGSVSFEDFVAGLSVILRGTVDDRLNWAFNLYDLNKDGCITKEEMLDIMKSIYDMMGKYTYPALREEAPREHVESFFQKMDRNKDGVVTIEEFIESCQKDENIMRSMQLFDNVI
In short: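 Whole-cell patch clamp at 20-25 °C, bath pH 7.4 with 4 mM KCl, pipette 130 mM KCl/10 mM EGTA/5 mM Na2ATP. Compound at […] (≤0.1% DMSO), n=2; pulses from −100 mV to +40 mV for 300 ms at 0.1 Hz, P/n (n=5) leak-corrected, cells with 1–50 nA currents only.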

[3] = target: T2, human Kv4.3 (Homo sapiens, UniProt Q9UK17); assay: Electropharyngeogram (EPG) analysis of dissected pharynxes of transgenic C. elegans strain UG1755; format: ex vivo, transgenic C. elegans expressing human Kv4.3
T2 construct: expressed in transfected cells; host or cells: transgenic C. elegans strain UG1755 (plasmid pGV8 integrated; expression in the pharynx)
T2 sequence (Q9UK17 1-655): T1 sequence (Q9UK17 1-655)
Description: The method to describe the construction of a transgenic C. elegans strain expressing human Kv4.3 has been described in WO 03/097682. Briefly, the actual used strain UG1755 has been generated by microinjection into the gonad of a wild-type strain N2 with a mix of 5 ng/μl plasmid pGV8 (human Kv4.3), 20 ng/μl pDW2821 (GFP-marker) and 40 ng/μl genomic C. elegans DNA. Transgenic animals have been isolated and submitted to integration of the extra-chromosomal array into the genome of C. elegans. A line with 50% transmission of the functional expressed human Kv4.3 has been mutagenized with gamma irradiation using a Cobalt source. About 12000 F2 animals have been singled out and their progeny has been screened for the 100% transmission of the GFP marker. Lines with 100% transmission of GFP have been considered as potentially integrated. These lines have been further tested and out-crossed with N2 strain two-times. All lines obtained have been tested for viability, GFP and human Kv4.3 expression. At the end of a selection process, UG1755 was identified as most suitable C. elegans strain amenable to high throughput screening (HTS). […] Briefly, dissected pharynxes of UG1755 C. elegans animals have been prepared and Electropharyngeograms (EPGs) have been recorded using an Axopatch-1D amplifier (Axon instruments). […] The number of ultra short EPGs (10-20 ms) and normal EPGs (100-200 ms) has been analyzed and given as ratio in percentage. […] In addition standard qRT-PCR confirmed the presence of the human Kv4.3 transgene in UG1755 as well as human Kv4.3 protein has been detected with the human Kv4.3 antibody P 0358 in the pharynx of UG1755 animals.
Introducing the human Kv4.3 channel into the C. elegans pharynx influences the C. elegans action potential in a characteristic fashion. […] The pumping end-point can be technically translated into a high-throughput read-out by the use of a pro-fluorescent dye. […] After a defined incubation period, the change of fluorescence intensity in the intestine can be measured with a plate reader.

[4] = read-out: Kv4.3 charge in %: remaining current measured after application of the compound and relative to the blank
[5] = read-out: Kv4.3 peak in %: remaining peak height measured after application of the compound and relative to the blank

Chain of hERG potassium channel (Q12809 whole entry): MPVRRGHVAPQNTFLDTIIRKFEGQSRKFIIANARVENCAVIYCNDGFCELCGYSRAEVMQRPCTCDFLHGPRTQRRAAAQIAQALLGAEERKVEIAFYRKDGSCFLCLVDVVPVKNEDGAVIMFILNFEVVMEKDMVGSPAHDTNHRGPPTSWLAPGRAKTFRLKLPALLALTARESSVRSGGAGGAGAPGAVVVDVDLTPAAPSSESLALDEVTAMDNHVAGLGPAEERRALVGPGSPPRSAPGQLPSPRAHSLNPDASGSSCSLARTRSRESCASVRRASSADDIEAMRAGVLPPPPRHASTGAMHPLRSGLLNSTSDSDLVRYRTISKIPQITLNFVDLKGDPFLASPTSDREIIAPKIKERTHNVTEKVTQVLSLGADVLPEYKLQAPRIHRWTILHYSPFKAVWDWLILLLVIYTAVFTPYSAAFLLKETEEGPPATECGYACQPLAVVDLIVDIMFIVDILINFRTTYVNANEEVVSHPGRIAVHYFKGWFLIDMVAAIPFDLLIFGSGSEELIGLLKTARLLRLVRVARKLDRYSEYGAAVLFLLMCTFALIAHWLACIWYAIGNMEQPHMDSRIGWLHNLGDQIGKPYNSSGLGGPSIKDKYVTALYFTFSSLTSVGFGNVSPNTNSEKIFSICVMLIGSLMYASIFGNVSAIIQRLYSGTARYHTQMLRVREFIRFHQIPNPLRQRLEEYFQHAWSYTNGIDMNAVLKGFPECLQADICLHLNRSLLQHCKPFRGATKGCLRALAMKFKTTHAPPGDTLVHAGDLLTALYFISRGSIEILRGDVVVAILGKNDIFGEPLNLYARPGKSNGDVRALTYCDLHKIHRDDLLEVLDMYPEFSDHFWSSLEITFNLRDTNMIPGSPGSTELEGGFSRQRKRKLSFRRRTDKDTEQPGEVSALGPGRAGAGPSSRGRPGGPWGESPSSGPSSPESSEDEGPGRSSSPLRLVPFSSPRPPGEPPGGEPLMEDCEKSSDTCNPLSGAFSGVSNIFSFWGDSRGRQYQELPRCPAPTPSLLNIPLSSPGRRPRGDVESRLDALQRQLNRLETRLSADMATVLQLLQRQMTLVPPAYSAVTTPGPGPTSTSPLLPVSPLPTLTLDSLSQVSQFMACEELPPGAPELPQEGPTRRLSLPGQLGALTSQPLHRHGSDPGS

COc1ccc(CNC(=O)c2oc3ccccc3c2-n2cccc2)c(OC)c1 [Compound 18, 3-pyrrol-1-yl-benzofuran-2-carboxylic acid 2,4-dimethoxy-benzylamide]
melting point: 46 to 51.8 °C
hERG (%) ([1]; 10 μM): 41%
remaining activity at 1 µM [2, 4]: 45%
remaining activity at 1 µM [2, 5]: 88%

O=C(NCc1ccc2c(c1)OCO2)c1cc2cc(Cl)ccc2o1 [Compound 92]
melting point: 144 to 145.9 °C
hERG (%) ([1]; at 1 μM): 88% at 1 μM
remaining activity at 1 µM [2, 4]: 64%
remaining activity at 1 µM [2, 5]: 91%

O=C(NCC1CCCCN1)c1cc(OCC(F)(F)F)ccc1OCC(F)(F)F (centres unmarked) [Flecainide]
ultra short action potentials of the human Kv4.3 transgenic C. elegans pharynx (result in words) [3]: restored to normal action potentials
After Application of Compound Ratio Ultra short to Normal EPGs in % ([3]; strain UG1755, 100 μM, n = 15, before application 83 ± 13): 53 ± 24%

O=C(OCc1ccccc1)c1cc2cc(Cl)ccc2o1 [Compound 44, 5-chloro-benzofuran-2-carboxylic benzyl ester]
melting point: 76.9 to 77.3 °C
hERG (%) ([1]; 10 μM): 28%
remaining activity at 1 µM [2, 4]: 45%
remaining activity at 1 µM [2, 5]: 80%

COc1ccc(CNC(=O)c2sc3ccc(Cl)cc3c2C)c(OC)c1 [Compound 21]
melting point: 146.8 to 147.8 °C
hERG (%) ([1]; 10 μM): 100%
remaining activity at 1 µM [2, 4]: 50%
remaining activity at 1 µM [2, 5]: 92%

Nc1ccncc1 [4-aminopyridine]
ultra short action potentials of the human Kv4.3 transgenic C. elegans pharynx (result in words) [3]: restored to normal action potentials

COc1ccc(CNC(=O)c2oc3ccccc3c2C)c(OC)c1 [Compound 43, 3-methyl-benzofuran-2-carboxylic acid 2,4-dimethoxy-benzylamide]
melting point: 110.7 to 111.5 °C
hERG (%) ([1]; 10 μM): 61%
remaining activity at 1 µM [2, 4]: 70%
remaining activity at 1 µM [2, 5]: 94%

Source: patent US20080039442A1, “Compounds With Kv4 Ion Channel Activity” (Devgen NV, priority 2004, published 2008)
